Tests used:
[1] = tested on: HDAC proteins in HeLa cell lysates; experiment: Global HDAC inhibition with HeLa cell lysates (HDAC-Glo I/II substrate); assay type: biochemical; conditions: for Deacetylase activity (%): Hela Lysate
Method: HDAC activity was measured using the commercially available HDAC-Glo™ I/II substrate (Promega).
Lysates were prepared according to the reported procedure.^28 HeLa-S3 cells (purchased from Biovest) were lysed in lysis buffer (1×10^9 cells in 10 mL lysis buffer; 50 mM Tris-HCl, pH 8.0, 10% glycerol, 150 mM NaCl, 0.5% Triton X-100, and 1× protease inhibitor cocktail (GenDEPOT)) with rotation at 4° C. for 30 min. Cell debris was removed by centrifugation at 12000 rpm at 4° C. for 30 min. Protein concentration of the supernatant was determined using Bio-Rad protein assay (BioRad, Bradford reagent). Lysates were stored at −80° C.
To measure global HDAC inhibition, HeLa cell lysates (1 μg total protein) were mixed with HDAC-Glo™ buffer in polystyrene 96-well half area white plate (Corning) to a final volume of 12 μL, followed by addition of inhibitors in DMSO (0.5 μL) and incubation for 15 min at room temperature without rocking. An uninhibited control reaction was also included that contained DMSO (0.5 μL). Finally, deacetylase activity was measured using the HDAC-Glo™ assay kit (Promega) as per the manufacturer's protocol. Specifically, the HDAC-Glo™ substrate (1 mL) and developer ([…]) were first premixed to form the HDAC-Glo™ reagents. Then, to monitor deacetylase activity, HDAC-Glo™ reagent (5 μL) and HDAC-Glo™ buffer (7.5 μL) were added to each well (25 μL total volume) and incubated for 35 min at room temperature without rocking. The deacetylase activity was measured as luminescent signal using a GeniosPlus Fluorimeter (Tecan) at optimal gain. The concentrations of inhibitors reported in the dose-dependent studies (Table 2) are final concentrations after addition of HDAC-Glo™ reagent HDAC-Glo™ buffer.

HDAC6 = molecular target: T1, HDAC6 (Homo sapiens, UniProt Q9UBN7); experiment: ELISA-based HDAC activity assay, HDAC6; conditions: for HDAC6 fold selectivity HDAC1: HDAC6 over HDAC1; for HDAC6 fold selectivity HDAC1 / HDAC6 fold selectivity HDAC2 / HDAC6 fold selectivity HDAC3: calculated from IC50 values; for HDAC6 fold selectivity HDAC2: HDAC6 over HDAC2; for HDAC6 fold selectivity HDAC3: HDAC6 over HDAC3; for IC50: read-out: IC50 values (nM) HDAC6
T1 sequence (Q9UBN7 1-1215): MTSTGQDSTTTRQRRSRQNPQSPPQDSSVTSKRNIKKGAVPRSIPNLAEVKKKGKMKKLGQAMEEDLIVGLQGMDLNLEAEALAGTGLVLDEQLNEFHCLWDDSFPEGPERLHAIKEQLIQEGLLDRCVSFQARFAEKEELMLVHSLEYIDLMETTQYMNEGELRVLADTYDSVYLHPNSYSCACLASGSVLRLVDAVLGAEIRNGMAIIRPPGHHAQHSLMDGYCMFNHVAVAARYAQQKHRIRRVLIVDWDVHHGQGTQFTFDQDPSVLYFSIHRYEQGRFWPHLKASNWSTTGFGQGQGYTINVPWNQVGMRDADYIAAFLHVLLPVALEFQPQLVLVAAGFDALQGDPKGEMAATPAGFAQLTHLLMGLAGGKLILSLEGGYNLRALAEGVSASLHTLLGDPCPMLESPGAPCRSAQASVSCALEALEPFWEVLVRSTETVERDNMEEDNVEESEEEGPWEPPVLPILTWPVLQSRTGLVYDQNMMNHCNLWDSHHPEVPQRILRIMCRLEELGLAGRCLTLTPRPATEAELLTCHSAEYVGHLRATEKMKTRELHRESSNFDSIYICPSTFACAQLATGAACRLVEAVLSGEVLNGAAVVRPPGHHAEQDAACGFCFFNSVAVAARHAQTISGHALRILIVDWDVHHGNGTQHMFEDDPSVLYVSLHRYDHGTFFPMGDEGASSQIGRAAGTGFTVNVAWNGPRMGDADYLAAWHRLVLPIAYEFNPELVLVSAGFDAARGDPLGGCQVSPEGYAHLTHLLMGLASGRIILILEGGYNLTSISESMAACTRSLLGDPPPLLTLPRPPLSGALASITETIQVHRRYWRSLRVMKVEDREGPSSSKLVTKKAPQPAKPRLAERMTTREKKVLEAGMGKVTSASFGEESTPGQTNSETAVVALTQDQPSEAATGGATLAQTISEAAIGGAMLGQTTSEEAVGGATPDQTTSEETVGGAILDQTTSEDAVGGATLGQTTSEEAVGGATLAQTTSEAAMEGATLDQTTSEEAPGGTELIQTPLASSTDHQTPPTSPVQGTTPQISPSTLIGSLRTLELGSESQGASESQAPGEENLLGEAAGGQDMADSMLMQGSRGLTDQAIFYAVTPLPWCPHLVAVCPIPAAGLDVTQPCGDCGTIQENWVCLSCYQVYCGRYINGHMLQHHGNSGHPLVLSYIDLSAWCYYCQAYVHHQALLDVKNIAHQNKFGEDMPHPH

HDAC2 = HDAC2 (Homo sapiens, UniProt Q92769); experiment: ELISA-based HDAC activity assay, HDAC2; conditions: for IC50: read-out: IC50 values (nM) HDAC2
HDAC2, sequence (Q92769 whole entry): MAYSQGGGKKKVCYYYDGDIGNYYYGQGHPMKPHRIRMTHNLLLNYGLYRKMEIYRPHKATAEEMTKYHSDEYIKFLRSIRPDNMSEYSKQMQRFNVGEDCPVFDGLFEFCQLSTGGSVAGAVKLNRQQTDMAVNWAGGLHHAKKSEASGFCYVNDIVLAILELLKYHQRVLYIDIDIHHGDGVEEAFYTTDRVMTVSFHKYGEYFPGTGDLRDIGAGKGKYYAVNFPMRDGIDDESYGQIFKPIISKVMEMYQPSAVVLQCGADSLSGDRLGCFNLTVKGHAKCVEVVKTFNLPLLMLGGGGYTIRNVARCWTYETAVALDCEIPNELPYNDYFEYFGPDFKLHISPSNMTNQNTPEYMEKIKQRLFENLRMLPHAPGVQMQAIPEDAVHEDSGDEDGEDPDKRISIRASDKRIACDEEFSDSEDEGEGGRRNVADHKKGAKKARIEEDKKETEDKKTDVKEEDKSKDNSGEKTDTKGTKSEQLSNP

HDAC3 = HDAC3 (Homo sapiens, UniProt O15379); experiment: ELISA-based HDAC activity assay, HDAC3; conditions: for IC50: read-out: IC50 values (nM) HDAC3
HDAC3, sequence (O15379 whole entry): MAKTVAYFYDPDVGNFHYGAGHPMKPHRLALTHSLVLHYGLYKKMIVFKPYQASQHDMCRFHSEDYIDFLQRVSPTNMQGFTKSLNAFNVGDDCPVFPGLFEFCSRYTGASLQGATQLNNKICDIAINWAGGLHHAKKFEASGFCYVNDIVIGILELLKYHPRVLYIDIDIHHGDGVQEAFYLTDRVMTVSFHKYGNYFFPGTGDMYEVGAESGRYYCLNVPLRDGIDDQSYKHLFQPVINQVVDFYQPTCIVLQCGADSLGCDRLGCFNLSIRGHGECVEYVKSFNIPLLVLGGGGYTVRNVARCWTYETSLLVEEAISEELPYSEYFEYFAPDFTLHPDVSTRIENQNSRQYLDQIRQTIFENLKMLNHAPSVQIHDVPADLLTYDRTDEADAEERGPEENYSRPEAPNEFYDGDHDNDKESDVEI
HDAC3, sequence (Q9Y618 whole entry partner): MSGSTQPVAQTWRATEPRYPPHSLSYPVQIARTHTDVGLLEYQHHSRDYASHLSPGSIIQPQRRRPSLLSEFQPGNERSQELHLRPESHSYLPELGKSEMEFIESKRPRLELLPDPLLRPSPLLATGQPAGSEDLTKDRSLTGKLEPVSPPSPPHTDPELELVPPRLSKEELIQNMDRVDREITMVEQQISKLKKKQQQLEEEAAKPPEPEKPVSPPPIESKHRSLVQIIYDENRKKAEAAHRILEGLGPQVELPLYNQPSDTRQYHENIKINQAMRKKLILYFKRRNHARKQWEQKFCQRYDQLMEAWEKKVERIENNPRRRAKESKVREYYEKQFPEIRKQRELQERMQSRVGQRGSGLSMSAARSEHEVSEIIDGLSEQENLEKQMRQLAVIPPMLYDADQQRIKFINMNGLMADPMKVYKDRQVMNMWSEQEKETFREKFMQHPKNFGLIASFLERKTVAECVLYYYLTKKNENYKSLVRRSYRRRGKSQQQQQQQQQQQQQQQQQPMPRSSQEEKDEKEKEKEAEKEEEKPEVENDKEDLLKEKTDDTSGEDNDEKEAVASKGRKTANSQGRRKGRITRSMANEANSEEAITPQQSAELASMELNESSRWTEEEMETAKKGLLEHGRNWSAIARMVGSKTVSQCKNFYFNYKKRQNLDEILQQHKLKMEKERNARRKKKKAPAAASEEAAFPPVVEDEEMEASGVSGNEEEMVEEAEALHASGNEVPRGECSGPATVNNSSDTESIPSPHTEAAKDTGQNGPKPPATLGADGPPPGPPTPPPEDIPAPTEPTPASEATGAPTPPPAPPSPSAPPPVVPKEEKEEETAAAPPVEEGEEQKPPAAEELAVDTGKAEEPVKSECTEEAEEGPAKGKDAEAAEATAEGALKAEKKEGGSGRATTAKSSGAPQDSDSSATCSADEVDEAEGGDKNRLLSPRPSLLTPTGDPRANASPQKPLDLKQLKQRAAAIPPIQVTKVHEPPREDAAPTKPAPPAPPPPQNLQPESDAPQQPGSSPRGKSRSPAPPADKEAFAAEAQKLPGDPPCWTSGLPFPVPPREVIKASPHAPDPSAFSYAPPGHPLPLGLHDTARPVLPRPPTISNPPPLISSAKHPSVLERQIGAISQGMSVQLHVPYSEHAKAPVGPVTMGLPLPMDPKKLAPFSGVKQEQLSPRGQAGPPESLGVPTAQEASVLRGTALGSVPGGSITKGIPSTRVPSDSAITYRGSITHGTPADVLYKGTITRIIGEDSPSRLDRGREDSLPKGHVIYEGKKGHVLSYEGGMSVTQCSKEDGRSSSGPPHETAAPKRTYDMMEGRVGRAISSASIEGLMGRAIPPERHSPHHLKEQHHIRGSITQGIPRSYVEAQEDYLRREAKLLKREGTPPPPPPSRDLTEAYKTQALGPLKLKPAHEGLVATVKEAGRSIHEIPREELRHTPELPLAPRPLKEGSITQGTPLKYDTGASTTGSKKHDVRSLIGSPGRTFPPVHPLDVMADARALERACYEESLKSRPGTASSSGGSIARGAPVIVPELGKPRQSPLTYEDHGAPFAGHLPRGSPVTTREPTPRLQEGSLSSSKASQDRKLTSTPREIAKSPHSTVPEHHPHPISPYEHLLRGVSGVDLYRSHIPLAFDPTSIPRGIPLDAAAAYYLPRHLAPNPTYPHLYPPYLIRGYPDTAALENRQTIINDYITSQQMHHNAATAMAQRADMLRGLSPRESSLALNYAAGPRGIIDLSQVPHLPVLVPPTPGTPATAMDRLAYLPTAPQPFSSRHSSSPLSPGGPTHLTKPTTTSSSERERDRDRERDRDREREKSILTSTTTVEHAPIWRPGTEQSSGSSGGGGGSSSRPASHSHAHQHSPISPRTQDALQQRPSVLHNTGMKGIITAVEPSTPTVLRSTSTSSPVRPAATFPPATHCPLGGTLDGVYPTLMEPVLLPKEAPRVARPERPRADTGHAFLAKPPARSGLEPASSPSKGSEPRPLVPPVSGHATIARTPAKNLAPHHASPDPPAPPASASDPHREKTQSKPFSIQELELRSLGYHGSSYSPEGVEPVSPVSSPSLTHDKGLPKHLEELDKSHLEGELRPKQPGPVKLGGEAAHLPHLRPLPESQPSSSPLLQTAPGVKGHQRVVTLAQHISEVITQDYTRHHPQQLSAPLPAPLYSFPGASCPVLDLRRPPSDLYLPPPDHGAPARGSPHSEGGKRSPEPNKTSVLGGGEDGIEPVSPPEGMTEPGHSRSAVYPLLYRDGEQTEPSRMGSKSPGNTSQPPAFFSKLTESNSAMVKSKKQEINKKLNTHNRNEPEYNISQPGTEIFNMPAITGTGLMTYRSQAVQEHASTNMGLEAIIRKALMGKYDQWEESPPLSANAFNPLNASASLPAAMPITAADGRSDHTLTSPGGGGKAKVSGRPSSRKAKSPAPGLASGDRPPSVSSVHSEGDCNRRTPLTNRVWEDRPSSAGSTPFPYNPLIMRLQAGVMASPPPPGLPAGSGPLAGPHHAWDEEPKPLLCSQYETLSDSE

recombinant HDAC8 = molecular target: T2, recombinant HDAC8 (Homo sapiens, UniProt Q9BY41); experiment: Recombinant HDAC8 inhibition (HDAC-Glo); assay type: biochemical; conditions: for activity at 0.1 µM: 1.0 × 10^−7 M; for activity at 0.2 µM: 2.0 × 10^−7 M; for activity at 0.05 µM: 5.0 × 10^−8 M; for HDAC8 fold selectivity HDAC1: HDAC8 over HDAC1; for HDAC8 fold selectivity HDAC1 / HDAC8 fold selectivity HDAC2 / HDAC8 fold selectivity HDAC3: calculated from IC50 values; for HDAC8 fold selectivity HDAC2: HDAC8 over HDAC2; for HDAC8 fold selectivity HDAC3: HDAC8 over HDAC3
T2 construct: purchased BPS Bioscience
T2 sequence (Q9BY41 1-377): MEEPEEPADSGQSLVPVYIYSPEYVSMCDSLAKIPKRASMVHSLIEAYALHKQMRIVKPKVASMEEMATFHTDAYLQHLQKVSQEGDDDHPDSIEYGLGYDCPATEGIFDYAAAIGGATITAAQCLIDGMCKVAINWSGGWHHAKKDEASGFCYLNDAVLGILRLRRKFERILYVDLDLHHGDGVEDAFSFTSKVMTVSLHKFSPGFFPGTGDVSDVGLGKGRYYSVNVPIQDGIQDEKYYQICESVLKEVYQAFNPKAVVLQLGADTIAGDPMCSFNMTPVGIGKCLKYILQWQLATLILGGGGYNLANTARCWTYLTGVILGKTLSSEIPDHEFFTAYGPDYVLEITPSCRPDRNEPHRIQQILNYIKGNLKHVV
Method: Inhibitory activity with HDAC8 was measured using the following procedure. In a half area 96-well white opaque plate, recombinant HDAC8 (75 ng, BPS Bioscience) was incubated in HDAC-Glo™ buffer (39 μL) with inhibitor in DMSO (1 μL), or DMSO alone (1 μL) as a control, for 15 minutes at room temperature. HDAC-Glo™ reagent (10 μL) was added to each reaction and incubated for 30 min at room temperature. Luminescent signal was measured 30 minutes after adding the substrate reagent using a Geniosplus Fluorimeter (Tecan) at optimal gain. To determine IC50, the luminescent signal was first background corrected with the signal from a background control reaction where no HDAC8 enzyme was added.

HDAC1 = HDAC1 (Homo sapiens, UniProt Q13547); experiment: ELISA-based HDAC activity assay, HDAC1; conditions: for IC50: read-out: IC50 values (nM) HDAC1
HDAC1, sequence (Q13547 whole entry): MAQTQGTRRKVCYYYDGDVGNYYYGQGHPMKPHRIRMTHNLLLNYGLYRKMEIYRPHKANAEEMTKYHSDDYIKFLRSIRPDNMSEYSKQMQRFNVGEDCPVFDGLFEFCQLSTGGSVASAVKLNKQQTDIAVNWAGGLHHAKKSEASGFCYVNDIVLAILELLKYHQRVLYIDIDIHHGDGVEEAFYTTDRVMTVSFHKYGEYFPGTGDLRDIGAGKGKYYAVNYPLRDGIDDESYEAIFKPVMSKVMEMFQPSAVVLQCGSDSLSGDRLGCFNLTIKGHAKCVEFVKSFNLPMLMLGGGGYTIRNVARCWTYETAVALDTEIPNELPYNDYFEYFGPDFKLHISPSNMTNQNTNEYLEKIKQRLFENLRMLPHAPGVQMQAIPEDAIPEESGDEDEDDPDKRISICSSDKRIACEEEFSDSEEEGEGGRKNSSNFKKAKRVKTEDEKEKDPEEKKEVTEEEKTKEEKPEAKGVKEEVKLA

[2] = read-out: Deacetylase activity (%) HDAC6
[3] = read-out: Deacetylase activity (%) HDAC2
[4] = read-out: Deacetylase activity (%) HDAC3
[5] = read-out: Deacetylase activity (%) HDAC8
[6] = read-out: Deacetylase activity (%) HDAC1

## CC(CCCC(=O)Nc1ccccc1)CCC(=O)NO (racemic) [Compound 1a, N^1-hydroxy-4-methyl-N^8-phenyloctanediamide]
[1]; 1.0 × 10^−5 M
  Deacetylase activity (%): 17 ± 2%
[1]; 1.25 × 10^−6 M
  Deacetylase activity (%): 79 ± 3%
[1]; 5.0 × 10^−6 M
  Deacetylase activity (%): 38 ± 4%
[1]; 6.25 × 10^−6 M
  Deacetylase activity (%): 91 ± 2%
[1]; HeLa cell lysates
  IC50: 3.3 µM
[1]; HeLa cell lysates, compared to parent SAHA
  fold less potent than SAHA: 18 fold
[1]; […] 10^−6 M
  Deacetylase activity (%): 60 ± 3%

## CCCCCCC(CCCC(=O)Nc1ccccc1)CCC(=O)NO (single isomer, unassigned) [Compound 1e, 4-hexyl-N^1-hydroxy-N^8-phenyloctanediamide]
[1]; 1.0 × 10^−4 M
  Deacetylase activity (%): 32 ± 1%
[1]; 1.25 × 10^−5 M
  Deacetylase activity (%): 104 ± 1%
[1]; 2.0 × 10^−4 M
  Deacetylase activity (%): 15 ± 1%
[1]; 5.0 × 10^−5 M
  Deacetylase activity (%): 57 ± 2%
[1]; HeLa cell lysates
  IC50: 65 ± 6 µM
[1]; […] 10^−5 M
  Deacetylase activity (%): 88 ± 1%

## O=C(CC[C@@H](CCCC(=O)Nc1ccccc1)Cc1ccccc1)NO [(R)-1f, (R)-4-benzyl-N^1-hydroxy-N^8-phenyloctanediamide]
HDAC6
  HDAC6 fold selectivity HDAC1: 420 fold
  HDAC6 fold selectivity HDAC2: 540 fold
  HDAC6 fold selectivity HDAC3: 390 fold
  IC50: 48 nM
HDAC6; [2]
  activity at 0.0125 µM: 67 ± 4%
  activity at 0.05 µM: 57 ± 5%
  activity at 0.1 µM: 37 ± 6%
  activity at 0.2 µM: 26 ± 4%
  activity at […]: 59 ± 8%
HDAC2; [3]
  activity at 5 µM: 96 ± 1%
  activity at 10 µM: 83 ± 5%
  activity at 20 µM: 71 ± 4%
  activity at 40 µM: 43 ± 5%
  activity at 80 µM: 29 ± 1%
HDAC2
  IC50: 36000 nM
HDAC3; [4]
  activity at 5 µM: 89 ± 2%
  activity at 10 µM: 77 ± 2%
  activity at 20 µM: 54 ± 4%
  activity at 40 µM: 39 ± 2%
  activity at 80 µM: 25 ± 2%
HDAC3
  IC50: 27000 nM
Recombinant HDAC8
  IC50: 27 nM
  HDAC8 fold selectivity HDAC1: 260 fold
  HDAC8 fold selectivity HDAC2: 330 fold
  HDAC8 fold selectivity HDAC3: 240 fold
Recombinant HDAC8; [5]
  activity at 0.1 µM: 22 ± 1%
  activity at 0.2 µM: 16 ± 1%
  activity at 0.05 µM: 37 ± 3%
Recombinant HDAC8; 1.25 × 10^−8 M, read-out: Deacetylase activity (%) HDAC8
  activity at 0.0125 µM: 64 ± 2%
Recombinant HDAC8; 2.5 × 10^−8 M, read-out: Deacetylase activity (%) HDAC8
  activity at […]: 56 ± 4%
HDAC1; [6]
  activity at 5 µM: 88 ± 4%
  activity at 10 µM: 72 ± 3%
  activity at 20 µM: 53 ± 6%
  activity at 40 µM: 38 ± 3%
  activity at 80 µM: 24 ± 2%
HDAC1
  IC50: 25000 nM

## O=C(CC[C@H](CCCC(=O)Nc1ccccc1)Cc1ccccc1)NO [(S)-1f, (S)-4-benzyl-N^1-hydroxy-N^8-phenyloctanediamide]
HDAC6
  HDAC6 fold selectivity HDAC1: 520 fold
  HDAC6 fold selectivity HDAC2: 750 fold
  HDAC6 fold selectivity HDAC3: 560 fold
  IC50: 95 ± 9 nM
HDAC6; [2]
  activity at 0.05 µM: 64 ± 4%
  activity at 0.1 µM: 48 ± 7%
  activity at 0.2 µM: 37 ± 7%
  activity at 0.4 µM: 17 ± 6%
  activity at 0.8 µM: 16 ± 6%
HDAC2; [3]
  activity at 10 µM: 87 ± 5%
  activity at 20 µM: 74 ± 3%
  activity at 40 µM: 56 ± 3%
  activity at 80 µM: 37 ± 6%
  activity at 160 µM: 22 ± 2%
HDAC2
  IC50: 51000 nM
HDAC3; [4]
  activity at 10 µM: 76 ± 5%
  activity at 20 µM: 67 ± 4%
  activity at 40 µM: 48 ± 2%
  activity at 80 µM: 33 ± 4%
  activity at 160 µM: 15 ± 2%
HDAC3
  IC50: 37000 nM
Recombinant HDAC8
  IC50: 150 nM
  HDAC8 fold selectivity HDAC1: 930 fold
  HDAC8 fold selectivity HDAC2: 1300 fold
  HDAC8 fold selectivity HDAC3: 1000 fold
Recombinant HDAC8; [5]
  activity at 0.1 µM: 61 ± 3%
  activity at 0.2 µM: 42 ± 2%
  activity at 0.05 µM: 75 ± 6%
Recombinant HDAC8; 4.0 × 10^−7 M, read-out: Deacetylase activity (%) HDAC8
  activity at 0.4 µM: 28 ± 1%
Recombinant HDAC8; 8.0 × 10^−7 M, read-out: Deacetylase activity (%) HDAC8
  activity at 0.8 µM: 19 ± 1%
HDAC1; [6]
  activity at 10 µM: 84 ± 7%
  activity at 20 µM: 68 ± 3%
  activity at 40 µM: 50 ± 3%
  activity at 80 µM: 32 ± 2%
  activity at 160 µM: 17 ± 1%
HDAC1
  IC50: 40000 nM

Source: US10259779B2 (WAYNE STATE UNIVERSITY, priority 2016, dated 2019)
